Measurements as given in PubChem BioAssay AID1259335.

test system: C. elegans L1 growth, INVAPP imaging, 5 days; experiment: anthelmintic effect on nematode larval growth – whole organism, confirmation (AID 1259335)

Compound	EC50
Nc1ccc(C(=O)Nc2ccc(-c3nc4ccccc4o3)cc2)cc1	6200 nM
COC(=O)C1=C(C)NC(C)=C(C(=O)OC(C)C)[C@H]1c1cccc2nonc12	1600 nM
Cc1cc(C(=O)Nc2ccc(-c3ccccc3)cc2)no1	2500 nM
O=C(Nc1ccc(F)c(-c2nc3ncc(-c4ccccc4)cc3[nH]2)c1)N1CCCC1	3300 nM
COC(=O)Nc1nc2ccc(C(=O)c3ccccc3)cc2[nH]1	1100 nM
CCc1nn(C)c(C(=O)NCc2ccc(Oc3ccc(C)cc3)cc2)c1Cl	200 nM
O=C(Nc1ccc2c(c1)B(O)OC2)c1ccccc1C(F)(F)F	4300 nM
